# Values quoted from earlier work, collected in patent US20070232597A1, “Compounds, Compositions, and Methods” (priority 2003, published 2007).
# Test system: A549 cells
# Conditions: data provided by National Cancer Institute, Developmental Therapeutic Program
row,Structure (SMILES),GI50
1,NC(=O)NO [hydroxyurea],500000 nM
2,COc1cccc2c1C(=O)c1c(O)c3c(c(O)c1C2=O)C[C@@](O)(C(=O)CO)C[C@@H]3O[C@H]1C[C@H](N)[C@H](O)[C@H](C)O1 [doxorubicin],63 nM
3,CC(=O)O[C@H]1C(=O)[C@@]2(C)[C@H]([C@H](OC(=O)c3ccccc3)[C@]3(O)C[C@H](OC(=O)[C@H](O)[C@@H](NC(=O)c4ccccc4)c4ccccc4)C(C)=C1C3(C)C)[C@]1(OC(C)=O)CO[C@@H]1C[C@@H]2O [paclitaxel],4 nM
4,O=c1[nH]cc(F)c(=O)[nH]1 [5-fluorouracil],1000 nM
